Values of other authors, collected in patent publication US8288445B2, “Stable pharmaceutical products” (Nycomed GmbH, priority 2003, dated 2012).

Settings: disclosed in U.S. Pat. No. 6,268,533 and WO 00/21487

COc1ccc(C[C@@H](C)NC[C@H](O)c2ccc(O)c(NC=O)c2)cc1.O=C(O)C(O)C(O)C(=O)O [L-(+)-tartrate salt of R,R-formoterol]
hygroscopicity: non-hygroscopic
